In patent US20230138395A1, “PHARMACEUTICAL COMPOSITIONS OF A THERAPEUTIC POLYENE MACROLIDE AND METHODS OF THEIR USE” (priority 2020, published 2023):
In brackets after ≈: the same amount, converted by molar mass.

Legend:
[1] = tested on: individual Aspergillus spp. (Table 15, species not named); assay: MFC determination, Table 15; format: cell-based; conditions: Aspergillus sp. of Table 15
[2] = tested on: Fusarium strains (Table 18); assay: MFC determination, Table 18; format: cell-based, Fusarium spp.
Fusarium strains = assay: MFC determination, Table 17; format: cell-based, Fusarium spp.; conditions: Fusarium strains (Table 17)
[3] = tested on: Aspergillus fumigatus AF91; assay: Disseminated Aspergillosis in immunocompromised murine model (CD-1 mice): tissue fungal burden; conditions: Experiment I; 7.5 mg/kg i.v., 7 days
C. parapsilosis = assay: MFC determination; format: cell-based
C. krusei strains = assay: MFC determination; format: cell-based; conditions: C. krusei
Paecilomyces strains = assay: MIC testing (CLSI M38-A2); format: cell-based, Paecilomyces spp.; conditions: Paecilomyces strains (5); in µg/mL
A. fumigatus AF91 = assay: In vitro activity (MFC) against the infecting strain, Example 17; format: cell-based, Aspergillus fumigatus; conditions: Aspergillus fumigatus, read-out: MFC
Protocol: Minimum Fungicidal Concentration: MFC determinations were performed according to the modifications previously described by Canton et al., Diagn. Microbiol. Infect. Dis., 45:203-206, 2003, and Ghannoum and Isham, Infectious Diseases in Clinical Practice, 15(4):250-253, 2007.
Specifically, the total contents of each clear well from the MIC assay were subcultured onto potato dextrose agar. To avoid antifungal carryover, the aliquots were allowed to soak into the agar and then were streaked for isolation once dry, thus removing the cells from the drug source. Fungicidal activity is defined as ≥99.9% reduction in the number of colony forming units (CFU)/ml from the starting inoculum count, while fungistatic activity is defined as <99.9% reduction. […] MIC and MFC values are considered to be equivalent if they are within 2 dilutions.

[4] = tested on: individual Aspergillus spp. (Table 13, species not given); assay: MFC determination, Table 13; format: cell-based; conditions: Aspergillus sp. of Table 13
Cr. neoformans strains = assay: MFC determination; format: cell-based, Cryptococcus neoformans; conditions: Cr. neoformans
C. albicans SC5314 = assay: In vitro activity (MFC) against the infecting strain, Example 18; format: cell-based, Candida albicans; conditions: Candida albicans, read-out: MFC
Penicillium strains = assay: MFC determination; format: cell-based, Penicillium spp.
Candida albicans SC5314 = assay: Disseminated candidiasis in immunocompromised murine model (BALB/c mice): tissue fungal burden; format: in vivo; conditions: Experiment I; 4 mg/kg i.v. twice a day, 7 days

C[C@@H](c1ncncc1F)[C@](O)(Cn1cncn1)c1ccc(F)cc1F [Voriconazole, voriconazole]
MFC50 ([1]; kills 50% of strains): > 4 µg/mL | MFC90 ([1]; kills 90% of strains): > 4 µg/mL | MFC50 ([2]; kills 50% of strains): > 16 µg/mL | MFC90 ([2]; kills 90% of strains): > 16 µg/mL | MFC50 (Fusarium strains; kills 50% of strains): 32 µg/mL (≈ 91.6 µM) | MFC90 (Fusarium strains; kills 90% of strains): > 32 µg/mL | Kidney tissue fungal burden, Mean log CFUs ± the standard deviation [3]: 3.19 ± 0.59 log CFUs | Lung tissue fungal burden, Mean log CFUs ± the standard deviation [3]: 3.38 ± 0.45 log CFUs | MFC50 (C. parapsilosis; C. parapsilosis, kills 50% of strains): > 32 µg/mL | MFC90 (C. parapsilosis; C. parapsilosis, kills 90% of strains): > 32 µg/mL | MFC (C. parapsilosis; individual C. parapsilosis strain with elevated MICs to non-polyene comparators (Table 22), in µg/mL): >32 | MFC50 (C. krusei strains; kills 50% of strains): > 8 µg/mL | MFC90 (C. krusei strains; kills 90% of strains): > 8 µg/mL | MIC Range (Paecilomyces strains): 0.125-2 | MFC (A. fumigatus AF91): > 8 µg/mL | MFC50 ([4]; kills 50% of strains): 8 µg/mL (≈ 22.9 µM) | MFC90 ([4]; kills 90% of strains): > 8 µg/mL | MFC50 (Cr. neoformans strains; kills 50% of strains): > 0.5 µg/mL | MFC90 (Cr. neoformans strains; kills 90% of strains): > 0.5 µg/mL | MFC (C. albicans SC5314): > 32 µg/mL | MFC50 (Penicillium strains; kills 50% of strains): > 32 µg/mL | MFC90 (Penicillium strains; kills 90% of strains): > 32 µg/mL | Brain tissue fungal burden, Mean log CFUs ± the standard deviation (Candida albicans SC5314): 3.42 ± 2.30 log CFUs | Kidney tissue fungal burden, Mean log CFUs ± the standard deviation (Candida albicans SC5314): 3.45 ± 1.15 log CFUs
